Measured values reported in patent US12441703B2, “Carboxamides as modulators of sodium channels” (VERTEX PHARMACEUTICALS INCORPORATED, priority 2019, dated 2025).

Biological target: human NaV 1.8 (Homo sapiens, UniProt Q9Y5Y9)
Experiment: E-VIPR assay for detecting and measuring NaV inhibition properties
Type: cell-based
Conditions: E-VIPR assay conducted in the absence of human serum (compounds marked *); HEK cells expressing truncated human NaV 1.8; read-out: IC50
Outline: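 Membrane-potential (coumarin/oxonol) readout after 10 s of 10 Hz biphasic electrical stimulation on E-VIPR. Compounds: 11-point 3-fold dilutions, […], 0.625% DMSO, 30 min at room temperature, human serum optional. Cells: HEK expressing truncated human NaV1.8 co-transduced with KIR2.1.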

Chain of human NaV 1.8 (Q9Y5Y9 whole entry, looked up): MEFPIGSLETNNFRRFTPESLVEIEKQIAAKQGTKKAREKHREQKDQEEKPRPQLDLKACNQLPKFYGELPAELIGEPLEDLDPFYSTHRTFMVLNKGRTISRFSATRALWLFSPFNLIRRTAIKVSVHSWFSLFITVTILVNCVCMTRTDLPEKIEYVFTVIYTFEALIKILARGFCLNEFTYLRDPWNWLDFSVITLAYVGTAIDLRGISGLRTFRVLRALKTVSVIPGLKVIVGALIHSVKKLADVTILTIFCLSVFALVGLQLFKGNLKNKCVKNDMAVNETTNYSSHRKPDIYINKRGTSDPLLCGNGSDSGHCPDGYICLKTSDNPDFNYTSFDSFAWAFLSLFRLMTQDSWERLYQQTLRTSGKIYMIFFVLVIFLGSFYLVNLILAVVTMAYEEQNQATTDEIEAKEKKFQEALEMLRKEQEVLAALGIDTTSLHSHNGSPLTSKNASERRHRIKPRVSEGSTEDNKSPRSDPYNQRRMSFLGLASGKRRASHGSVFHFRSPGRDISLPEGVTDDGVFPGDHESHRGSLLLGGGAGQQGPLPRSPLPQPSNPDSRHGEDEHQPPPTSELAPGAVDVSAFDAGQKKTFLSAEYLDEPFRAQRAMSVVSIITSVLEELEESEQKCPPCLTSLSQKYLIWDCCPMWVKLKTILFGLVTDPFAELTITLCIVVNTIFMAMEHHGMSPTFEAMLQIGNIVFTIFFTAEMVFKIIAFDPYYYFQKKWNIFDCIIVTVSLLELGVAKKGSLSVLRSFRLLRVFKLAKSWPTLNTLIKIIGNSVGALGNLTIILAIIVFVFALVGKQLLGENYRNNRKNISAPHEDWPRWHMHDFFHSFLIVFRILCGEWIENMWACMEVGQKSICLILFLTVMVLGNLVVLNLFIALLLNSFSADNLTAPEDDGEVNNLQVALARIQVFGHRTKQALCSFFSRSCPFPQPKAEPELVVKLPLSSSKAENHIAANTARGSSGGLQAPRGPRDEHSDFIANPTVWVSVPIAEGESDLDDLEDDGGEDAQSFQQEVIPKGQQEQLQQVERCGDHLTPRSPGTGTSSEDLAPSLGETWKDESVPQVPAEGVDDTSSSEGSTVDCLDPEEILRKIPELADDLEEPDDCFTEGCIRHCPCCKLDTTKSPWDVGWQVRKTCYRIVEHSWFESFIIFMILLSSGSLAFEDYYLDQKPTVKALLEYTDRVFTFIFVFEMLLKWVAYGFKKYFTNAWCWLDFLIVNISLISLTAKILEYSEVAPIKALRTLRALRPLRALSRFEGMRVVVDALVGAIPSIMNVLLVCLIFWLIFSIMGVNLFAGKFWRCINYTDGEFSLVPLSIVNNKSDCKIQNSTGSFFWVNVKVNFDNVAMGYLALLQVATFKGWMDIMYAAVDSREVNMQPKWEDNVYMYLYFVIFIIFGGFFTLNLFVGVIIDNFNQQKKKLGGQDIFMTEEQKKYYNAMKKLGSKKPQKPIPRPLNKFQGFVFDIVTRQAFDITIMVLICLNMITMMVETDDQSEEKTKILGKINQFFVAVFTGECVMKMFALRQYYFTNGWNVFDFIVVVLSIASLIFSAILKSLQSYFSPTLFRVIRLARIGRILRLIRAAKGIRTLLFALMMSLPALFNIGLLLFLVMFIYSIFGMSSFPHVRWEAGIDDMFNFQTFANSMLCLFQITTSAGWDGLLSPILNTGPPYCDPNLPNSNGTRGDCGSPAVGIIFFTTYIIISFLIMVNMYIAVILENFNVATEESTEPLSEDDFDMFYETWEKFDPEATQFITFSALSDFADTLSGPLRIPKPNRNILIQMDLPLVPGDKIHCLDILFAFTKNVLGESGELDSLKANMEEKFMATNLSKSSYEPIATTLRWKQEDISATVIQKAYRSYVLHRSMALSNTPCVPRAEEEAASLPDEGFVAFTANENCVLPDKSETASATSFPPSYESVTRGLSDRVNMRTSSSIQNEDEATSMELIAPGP

SMILES	IC50
COc1c(Oc2cnc(C(F)(F)F)c(C)c2C(=O)Nc2ccc(C(N)=O)nc2)ccc(F)c1F [Compound 358, N-(6-carbamoyl-3-pyridyl)-5-(3,4-difluoro-2-methoxy-phenoxy)-3-methyl-2-(trifluoromethyl)pyridine-4-carboxamide]	75 nM
COc1cc(OC(F)(F)F)ccc1Oc1cc(F)cc(F)c1C(=O)Nc1ccnc(C(N)=O)c1 [Compound 360, 4-[[2,4-difluoro-6-[2-methoxy-4-(trifluoromethoxy)phenoxy]benzoyl]amino]pyridine-2-carboxamide]	14 nM
Cc1c(Oc2ccc(C(F)(F)F)cc2C(=O)Nc2ccnc(C(N)=O)c2)ccc(F)c1F [Compound 361, 4-[[2-(3,4-difluoro-2-methyl-phenoxy)-5-(trifluoromethyl)benzoyl]amino]pyridine-2-carboxamide]	44 nM
COc1cc(OC(F)(F)F)ccc1Oc1cc(OC)c(C)c(F)c1C(=O)Nc1ccnc(C(N)=O)c1 [Compound 362, 4-[[2-fluoro-4-methoxy-6-[2-methoxy-4-(trifluoromethoxy)phenoxy]-3-methyl-benzoyl]amino]pyridine-2-carboxamide]	2 nM
COc1cc(OC(F)(F)F)ccc1Oc1cc(OC)c(C)c(Cl)c1C(=O)Nc1ccnc(C(N)=O)c1 [Compound 363, 4-[[2-chloro-4-methoxy-6-[2-methoxy-4-(trifluoromethoxy)phenoxy]-3-methyl-benzoyl]amino]pyridine-2-carboxamide]	3 nM
Cc1nc(C(C)(C)C)cc(Oc2ccc(F)cc2Cl)c1C(=O)Nc1ccnc(C(N)=O)c1 [Compound 364, 6-tert-butyl-N-(2-carbamoyl-4-pyridyl)-4-(2-chloro-4-fluoro-phenoxy)-2-methyl-pyridine-3-carboxamide]	46 nM
COc1cc(Oc2ccc(F)cc2Cl)c(C(=O)Nc2cnc(C(N)=O)nc2)c(F)c1C(F)(F)F [Compound 366, 5-[[6-(2-chloro-4-fluoro-phenoxy)-2-fluoro-4-methoxy-3-(trifluoromethyl)benzoyl]amino]pyrimidine-2-carboxamide]	13 nM
COc1c(C(F)(F)F)cc(Oc2ccc(F)cc2Cl)c(C(=O)Nc2cc(C(N)=O)ncc2C)c1F [Compound 382, 4-(6-(2-Chloro-4-Fluorophenoxy)-2-Fluoro-3-Methoxy-4-(Trifluoromethyl)Benzamido)-5-Methylpicolinamide]	5 nM

Same assay, conditions: E-VIPR assay conducted in the presence of human serum; HEK cells expressing truncated human NaV 1.8; read-out: IC50

SMILES	IC50
COc1cc(Oc2ccc(F)cc2Cl)c(C(=O)Nc2ccnc(C(N)=O)c2)c(F)c1C(F)(F)F [Compound 365, 4-[[6-(2-chloro-4-fluoro-phenoxy)-2-fluoro-4-methoxy-3-(trifluoromethyl)benzoyl]amino]pyridine-2-carboxamide]	50 nM
COc1cc(Oc2ccc(F)cc2Cl)c(C(=O)Nc2ccc(C(N)=O)nc2)c(F)c1C(F)(F)F [Compound 367, 5-[[6-(2-chloro-4-fluoro-phenoxy)-2-fluoro-4-methoxy-3-(trifluoromethyl)benzoyl]amino]pyridine-2-carboxamide]	330 nM
COc1cc(Oc2ccc(OC(F)(F)F)cc2Cl)c(C(=O)Nc2ccnc(C(N)=O)c2)c(F)c1C(F)(F)F [Compound 368, 4-[[6-[2-Chloro-4-(Trifluoromethoxy)Phenoxy]-2-Fluoro-4-Methoxy-3-(Trifluoromethyl)Benzoyl]Amino]Pyridine-2-Carboxamide]	5 nM
COc1cc(Oc2ccc(OC(F)(F)F)cc2Cl)c(C(=O)Nc2cnc(C(N)=O)nc2)c(F)c1C(F)(F)F [Compound 369, 5-[[6-[2-chloro-4-(trifluoromethoxy)phenoxy]-2-fluoro-4-methoxy-3-(trifluoromethyl)benzoyl]amino]pyrimidine-2-carboxamide]	9 nM
COc1cc(Oc2ccc(OC(F)(F)F)cc2Cl)c(C(=O)Nc2ccc(C(N)=O)nc2)c(F)c1C(F)(F)F [Compound 370, 5-[[6-[2-chloro-4-(trifluoromethoxy)phenoxy]-2-fluoro-4-methoxy-3-(trifluoromethyl)benzoyl]amino]pyridine-2-carboxamide]	43 nM
COc1cc(Oc2ccc(F)c(F)c2OC)c(C(=O)Nc2ccnc(C(N)=O)c2)c(F)c1C [Compound 372, 4-[[6-(3,4-difluoro-2-methoxy-phenoxy)-2-fluoro-4-methoxy-3-methyl-benzoyl]amino]pyridine-2-carboxamide]	12 nM
COc1c(Oc2cc(Cl)c(C)c(F)c2C(=O)Nc2ccnc(C(N)=O)c2)ccc(F)c1F [Compound 373, 4-[[4-chloro-6-(3,4-difluoro-2-methoxy-phenoxy)-2-fluoro-3-methyl-benzoyl]amino]pyridine-2-carboxamide]	6 nM
COc1c(Oc2ccc(OC3CC3)c(F)c2C(=O)Nc2ccnc(C(N)=O)c2)ccc(F)c1F [Compound 374, 4-[[3-(cyclopropoxy)-6-(3,4-difluoro-2-methoxy-phenoxy)-2-fluoro-benzoyl]amino]pyridine-2-carboxamide]	34 nM
COc1c(Oc2cnc(C(F)(F)F)c(C)c2C(=O)Nc2ccnc(C(N)=O)c2)ccc(F)c1F [Compound 375, N-(2-carbamoyl-4-pyridyl)-5-(3,4-difluoro-2-methoxy-phenoxy)-3-methyl-2-(trifluoromethyl)pyridine-4-carboxamide]	29 nM
COc1c(Oc2cc(C(F)(F)F)c(OC)c(F)c2C(=O)Nc2cc(C(N)=O)ncc2C)ccc(F)c1F [Compound 376, 4-[[6-(3,4-difluoro-2-methoxy-phenoxy)-2-fluoro-3-methoxy-4-(trifluoromethyl)benzoyl]amino]-5-methyl-pyridine-2-carboxamide]	9 nM
COc1c(Oc2cc(C(F)(F)F)c(OC)c(F)c2C(=O)Nc2ccc(C(N)=O)nc2)ccc(F)c1F [Compound 377, 5-[[6-(3,4-difluoro-2-methoxy-phenoxy)-2-fluoro-3-methoxy-4-(trifluoromethyl)benzoyl]amino]pyridine-2-carboxamide]	21 nM
COc1cc(Oc2ccc(F)c(F)c2OC)c(C(=O)Nc2cnc(C(N)=O)nc2)c(F)c1C(F)(F)F [Compound 380, 5-[[6-(3,4-difluoro-2-methoxy-phenoxy)-2-fluoro-4-methoxy-3-(trifluoromethyl)benzoyl]amino]pyrimidine-2-carboxamide]	26 nM
COc1cc(Oc2ccc(F)c(F)c2OC)c(C(=O)Nc2ccc(C(N)=O)nc2)c(F)c1C(F)(F)F [Compound 381, 5-[[6-(3,4-difluoro-2-methoxy-phenoxy)-2-fluoro-4-methoxy-3-(trifluoromethyl)benzoyl]amino]pyridine-2-carboxamide]	16 nM
COc1cc(OC(F)(F)F)ccc1Oc1ccc(C(F)(F)F)c(O)c1C(=O)Nc1ccnc(C(N)=O)c1 [Compound 383, 4-[[2-hydroxy-6-[2-methoxy-4-(trifluoromethoxy)phenoxy]-3-(trifluoromethyl)benzoyl]amino]pyridine-2-carboxamide]	> 3000 nM
[2H]C([2H])([2H])Oc1cc(OC(F)(F)F)ccc1Oc1cc(C2=CCCCC2)cc(F)c1C(=O)Nc1ccnc(C(N)=O)c1 [Compound 1001, 4-[[4-(cyclohexen-1-yl)-2-fluoro-6-[2-(trideuteriomethoxy)-4-(trifluoromethoxy)phenoxy]benzoyl]amino]pyridine-2-carboxamide]	19 nM
[2H]C([2H])([2H])Oc1cc(OC(F)(F)F)ccc1Oc1cc(C2=COCCC2)cc(F)c1C(=O)Nc1ccnc(C(N)=O)c1 [Compound 1002, 4-[[4-(3,4-dihydro-2H-pyran-5-yl)-2-fluoro-6-[2-(trideuteriomethoxy)-4-(trifluoromethoxy)phenoxy]benzoyl]amino]pyridine-2-carboxamide]	30 nM
[2H]C([2H])([2H])Oc1cc(OC(F)(F)F)ccc1Oc1cc(C2=CCC(F)(F)CC2)cc(F)c1C(=O)Nc1ccnc(C(N)=O)c1 [Compound 1003, 4-[[4-(4,4-difluorocyclohexen-1-yl)-2-fluoro-6-[2-(trideuteriomethoxy)-4-(trifluoromethoxy)phenoxy]benzoyl]amino]pyridine-2-carboxamide]	26 nM
[2H]C([2H])([2H])Oc1cc(OC(F)(F)F)ccc1Oc1cc(C2=CCOC2)cc(F)c1C(=O)Nc1ccnc(C(N)=O)c1 [Compound 1004, 4-[[4-(2,5-dihydrofuran-3-yl)-2-fluoro-6-[2-(trideuteriomethoxy)-4-(trifluoromethoxy)phenoxy]benzoyl]amino]pyridine-2-carboxamide]	29 nM
[2H]C([2H])([2H])Oc1cc(OC(F)(F)F)ccc1Oc1cc(C2=CCOCC2)cc(F)c1C(=O)Nc1ccnc(C(N)=O)c1 [Compound 1005, 4-[[4-(3,6-dihydro-2H-pyran-4-yl)-2-fluoro-6-[2-(trideuteriomethoxy)-4-(trifluoromethoxy)phenoxy]benzoyl]amino]pyridine-2-carboxamide]	120 nM
[2H]C([2H])([2H])Oc1cc(OC(F)(F)F)ccc1Oc1cc(-c2ccccc2C(N)=O)cc(F)c1C(=O)Nc1ccnc(C(N)=O)c1 [Compound 1006, 4-[[4-(2-carbamoylphenyl)-2-fluoro-6-[2-(trideuteriomethoxy)-4-(trifluoromethoxy)phenoxy]benzoyl]amino]pyridine-2-carboxamide]	> 3000 nM
[2H]C([2H])([2H])Oc1cc(OC(F)(F)F)ccc1Oc1cc(-c2ccc(OC)cc2)cc(F)c1C(=O)Nc1ccnc(C(N)=O)c1 [Compound 1007, 4-[[2-fluoro-4-(4-methoxyphenyl)-6-[2-(trideuteriomethoxy)-4-(trifluoromethoxy)phenoxy]benzoyl]amino]pyridine-2-carboxamide]	170 nM
[2H]C([2H])([2H])Oc1cc(OC(F)(F)F)ccc1Oc1cc(C2=COCC2)cc(F)c1C(=O)Nc1ccnc(C(N)=O)c1 [Compound 1008, 4-[[4-(2,3-dihydrofuran-4-yl)-2-fluoro-6-[2-(trideuteriomethoxy)-4-(trifluoromethoxy)phenoxy]benzoyl]amino]pyridine-2-carboxamide]	21 nM
